Results reported in US5223539A, “N,N-Di-alkyl(phenoxy)benzamide derivatives” (G. D. Searle & Co., priority 1991, dated 1993).

How the values were obtained:
rabbit platelets [1] = assay: PAF-induced platelet secretion ([3H]serotonin); type: cell-based; conditions: Oryctolagus cuniculus, washed [3H]serotonin-labeled rabbit platelets, antagonist 60 sec before PAF, sampled 60 sec after PAF
Description: (§1) Washed, [^3 H]serotonin-labeled rabbit platelets were prepared as previously described in COX, C. P., J. LINDEN and S. I. SAID: VIP elevates platelet cyclic AMP (cAMP) levels and inhibits in vitro platelet activation induced by platelet- activating factor (PAF). Peptides 5:25-28, 1984, and maintained in an atmosphere of 5% CO2 at 37° C. until used in the bioassay. Aliquots of platelets (2.5×10^8 /ml) were incubated with either an antagonist of PAF or the appropriate vehicle for 60 sec prior to the addition of PAF (0.2 nM to 0.2 mM). Aggregation was continuously monitored on a strip-chart recorder and recorded as the height of the tracing at 60 sec after the addition of PAF. Secretion of [^3 H]serotonin was measured in a sample of the platelet suspension removed at 60 sec after the addition of PAF. The percent inhibition of aggregation and secretion was calculated by comparing antagonist-treated platelets with the appropriate vehicle-treated control platelets. Each combination of antagonist and PAF was repeated 12-15 times, using several different platelet preparations. IC50 values were determined by inspection of the dose-response curves.

rabbit platelets [2] = assay: PAF-induced platelet aggregation; type: cell-based; conditions: Oryctolagus cuniculus, washed rabbit platelets, antagonist 60 sec before PAF, tracing height 60 sec after PAF
Description: as §1

[3] = biological target: Human Platelet Membrane Receptors (PAF receptor) (Homo sapiens, UniProt P25105); conditions: for inhibition at 50 µM: read-out: Percent Inhibition of 3H-PAF binding at 50 μM
Human Platelet Membrane Receptors (PAF receptor), sequence (P25105 whole entry): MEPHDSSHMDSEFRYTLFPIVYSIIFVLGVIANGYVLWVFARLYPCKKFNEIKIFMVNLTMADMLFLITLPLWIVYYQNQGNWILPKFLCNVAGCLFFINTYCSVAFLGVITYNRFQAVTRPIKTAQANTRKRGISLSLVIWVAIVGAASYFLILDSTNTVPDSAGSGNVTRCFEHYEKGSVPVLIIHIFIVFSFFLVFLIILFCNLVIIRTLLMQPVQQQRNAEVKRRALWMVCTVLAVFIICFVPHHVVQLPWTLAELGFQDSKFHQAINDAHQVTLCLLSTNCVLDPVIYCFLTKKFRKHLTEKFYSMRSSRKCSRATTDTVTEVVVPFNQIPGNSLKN
Description: INHIBITION OF ^3 H-PAF BINDING TO HUMAN PLATELET MEMBRANE RECEPTORS
Ten units of in-dated human packed platelets, each containing 45-65 ml platelet rich-plasma, were purchased from a commercial blood bank. Disposable plasticware was used throughout for receptor preparation. The units were pooled and a 1 ml aliquot was removed for determination of platelet concentration, using a Coulter Counter. The remaining platelet rich plasma was dispensed into 50 ml conical tubes and centrifuged at room temperature for 15 minutes at 3000 RPM (2300×g). Plasma was decanted and the platelets were resuspended in 35 ml of buffer (10 mM Trizma 7.0, 2 mM EDTA (dipotassium salt), and 150 mM KCl) and transferred to fresh tubes, which were centrifuged again as above. The platelets were washed 3 times, avoiding contaminating erythrocytes at the bottom of the pellets. Pellets were consolidated at each step, and by the last wash with EDTA/KCl buffer, most of the erythrocytes were in 1 tube. The pellets were resuspended in buffer containing 10 mM Trizma 7.0 with 10 mM CaCl2. Following centrifugation, the buffer was decanted and the pellets were resuspended in the CaCl2 buffer, avoiding erythrocyte contamination by recovering less than 100% of the platelet pellets. The resuspended platelets were dispensed in 8-10 ml aliquots into Corex tubes and disrupted by three cycles of freezing (dry ice/ethanol) and thawing (24° C.). The tubes were centrifuged at 40,000 × g for 20 minutes at 4° C. Supernatants were decanted and each pellet was resuspended in 5-7 ml 10 mM Trizma 7.0. All resuspended pellets were pooled and aliquots of about 1200 ml were dispensed into 1.5 ml microfuge tubes and frozen at -70° C. Protein content was determined by a fluorescamine protein assay.
Assay Methods: Receptor Characterization--Each receptor preparation was evaluated to determine the number of receptor populations, the number of PAF receptor equivalents/mg protein and the dissociation constant (KD) for PAF binding This required 2-3 experiments in which the protein concentration was held constant and the ^3 H-PAF ligand concentration was varied from approximately 0.10-2.5 nM and the data was analyzed by Scatchard methodology. Total incubation volume was 250 ml for these procedures and incubations were conducted at 24° C. for 30 minutes. For further experimentation, total incubation volumes are 500 ml. Protein and ligand concentrations were adjusted to give 0.075 nM receptor equivalents in the presence of 0.75 nM ^3 H-PAF. Each receptor preparation was then used to determine the dose - response displacement relationship of unlabeled PAF and the PAF antagonist, triazolam.
Assay Methods: Routine Assay of Compounds--The compounds were weighed precisely and solubilized in quantities of DMSO such that a 5 ml aliquot in the incubate would deliver the desired compound concentration. Compounds tested for the first time in this assay were evaluated at a concentration of 50 mM in the incubation medium. […] Triazolam was always included in each screening assay as a compound inhibition control. […] Nonspecific binding control solution was made by drying to completion about 26.2 ml unlabeled PAF under a stream of argon. PAF was resolubilized in 1000 ml DMSO. When delivered in a 5 ml aliquot, the final concentration of 1 mM PAF in the incubate exceeded by 1000-fold the concentration of ^3 H-PAF.
All buffers containing proteins were made at room temperature on the day of assay. Assay buffer was prepared by adding 125 mg human albumin to 25 ml of stock buffer (10 mM Trizma 7.4 with 20 mM CaCl2). Rinse buffer was made by adding 20 grams bovine serum albumin to 1000 ml stock buffer. About 80 ml of rinse buffer was decanted into a small pyrex dish and used to soak 65 Whatman GF/C 2.5 cm glass filters. The remaining rinse buffer was poured into a repipet and placed into an ice bath along with the filters.

Row | Structure (SMILES) | IC50 (rabbit platelets [1]; 1 min) [µM] | IC50 (rabbit platelets [2]) [µM] | inhibition at 50 µM [3] [%] | IC50 (rabbit platelets [1]) [µM] | IC50 (rabbit platelets [2]; 1 min) [µM] | IC50 [3] [µM] | inhibition of 3H-PAF binding by triazolam control at standard concentration ([3]; standard concentration of 50 mM (so in the source), 0.75 nM 3H-PAF)
1 | COc1ccc(C(O)c2ccc(C(=O)N(C3CCCC3)C3CCCC3)cc2)cc1OC (stereo not drawn) [Example 10, N,N-dicyclopentyl-4-[(3,4-dimethoxyphenyl) hydroxymethyl]benzamide] | 1 to 10 | > 10 | 47 |  |  |  | 
2 | COc1cc(Oc2ccc(C(=O)N(C3CCCCC3)C3CCCC3)cc2)cc(OC)c1OC [Example 4, N-cyclohexyl-N-cyclopentyl-4-(3,4,5-trimethoxyphenoxy)benzamide] |  |  |  | 0.00936 | 1 to 10 | 0.508 | 
3 | COc1cc(C(O)c2ccc(C(=O)N(C(C)C)C3CCCCC3)cc2)cc(OC)c1OC (stereo not drawn) [Example 14, N-cyclohexyl-4-[hydroxy(3,4,5-trimethoxyphenyl)methyl]-N-(1-methylethyl)benzamide] |  |  | 49.2 | 1.81 | 0.1 to 1 |  | 
4 | COc1ccc(OCc2ccc(C(=O)N(C(C)C)C3CCCCC3)cc2OC)c(OC)c1 [Example 20, N-cyclohexyl-4-[(2,4-dimethoxyphenoxy)methyl]-3-methoxy-N-(1-methylethyl)benzamide] |  |  | 41 |  |  |  | 
5 | COc1cc(OCc2ccc(C(=O)N(C)C3CCCCC3)cc2)cc(OC)c1OC [Example 23, N-cyclohexyl-N-methyl-4-[(3,4,5-trimethoxyphenoxy)methyl]benzamide] | 10 to 100 |  |  |  | 10 to 100 | > 50 | 
6 | COc1ccc(Oc2ccc(C(=O)N(C3CCCCC3)C3CCCC3)cc2)cc1OC [Example 5, N-cyclohexyl-N-cyclopentyl-4-(3,4-dimethoxyphenoxy)benzamide] |  |  |  | 4.01 | 1 to 10 | 1.5 | 
7 | COc1ccc(Oc2ccc(C(=O)N(C3CCCC3)C3CCCC3)cc2)cc1OC [Example 7, N,N-dicyclopentyl-4-(3,4-dimethoxyphenoxy)benzamide] |  |  |  | 0.422 | 1 to 10 | 0.914 | 
8 | COc1cccc(Oc2ccc(C(=O)N(C(C)C)C3CCCCC3)cc2)c1 [Example 3, N-cyclohexyl-4-(3-methoxyphenoxy)-N-(1-methylethyl)benzamide] |  |  |  | 0.75 | 1 to 10 | 10.5 | 
9 | COc1cc(OC)c(OC)cc1Cc1ccc(C(=O)N(C2CCCCC2)C2CCCC2)cc1 [Example 17, N-cyclohexyl-N-cyclopentyl-4-[(2,4,5-trimethoxyphenyl)methyl]benzamide] |  |  |  | 0.632 | 1 to 10 | 3.71 | 
10 | COc1cc(Oc2ccc(C(=O)N(C3CCCCC3)C3CCCC3)cc2C)cc(OC)c1OC [Example 13, N-cyclohexyl-N-cyclopentyl-3-methyl-4-(3,4,5-trimethoxyphenoxy)benzamide] |  | < 1 |  | 0.0894 |  | 0.6 | 
11 | Cc1nnc2n1-c1ccc(Cl)cc1C(c1ccccc1Cl)=NC2 [Triazolam, triazolam, reference compound] |  |  |  |  |  |  | approximately 50%
12 | CC(C)N(C(=O)c1ccc(Oc2ccc3c(c2)OCO3)cc1)C1CCCCC1 [Example 18, N-cyclohexyl-4-(3,4-methylenedioxyphenoxy)-N-(1-methylethyl)benzamide] |  |  |  | 1.99 | 1 to 10 | 8.16 | 
13 | COc1cc(Cc2ccc(C(=O)N(C(C)C)C3CCCCC3)cc2)cc(OC)c1OC [Example 15, N-cyclohexyl-N-(1-methylethyl)-4-[(3,4,5-trimethoxyphenyl)methyl]benzamide] |  |  |  | 0.0266 | 0.1 to 1 | 0.425 | 
14 | COc1cccc(OCc2ccc(C(=O)N(C)C3CCCCC3)cc2)c1 [Example 22, N-cyclohexyl-4-[(3-methoxyphenoxy)methyl]-N-methylbenzamide] |  |  |  | > 10 | 10 to 100 | 53.2 | 
15 | COc1ccc(C(O)c2ccc(C(=O)N(C3CCCCC3)C3CCCC3)cc2)cc1OC (stereo not drawn) [Example 9, N-cyclohexyl-N-cyclopentyl-4-[(3,4-dimethoxyphenyl)hydroxymethyl]benzamide] |  |  | 61.9 | 1.49 | 1 to 10 |  | 
16 | COc1cc(C(=O)c2ccc(C(=O)N(C(C)C)C3CCCCC3)cc2)cc(OC)c1OC [Example 16, N-cyclohexyl-N-(1-methylethyl)-4-(3,4,5-trimethoxybenzoyl)benzamide] |  |  |  | 0.103 | 0.1 to 1 |  | 
17 | COc1cccc(OCc2ccc(C(=O)N(C(C)C)C3CCCCC3)cc2OC)c1 [Example 21, N-cyclohexyl-3-methoxy-4-[(3-methoxyphenoxy)methyl]-N-(1-methylethyl)benzamide] |  |  |  |  |  | 11.2 | 
18 | COc1ccc(Oc2ccc(C(=O)N(C(C)C)C3CCCCC3)cc2)cc1OC [Example 6, N-cyclohexyl-4-(3,4-dimethoxyphenoxy)-N-(1-methylethyl)benzamide] |  |  |  | 0.0859 | 0.1 to 1 | 2.01 | 
19 | COc1cc(OC)cc(Oc2ccc(C(=O)N(C(C)C)C3CCCCC3)cc2)c1 [Example 12, N-cyclohexyl-4-(3,5-dimethoxyphenoxy)-N-(1-methylethyl)benzamide] |  |  |  | 0.142 | 1 to 10 | 2.71 | 
20 | COc1ccc(C(O)c2ccc(C(=O)N(C(C)C)C3CCCCC3)cc2)cc1OC (stereo not drawn) [Example 8, N-cyclohexyl-4-[(3,4-dimethoxyphenyl)hydroxymethyl]-N-(1-methylethyl)benzamide] |  |  | 44 | 2.57 | 10 to 100 |  | 
21 | COc1cc(Oc2ccc(C(=O)N(C(C)C)C3CCCCC3)cc2)cc(OC)c1OC [Example 1, N-cyclohexyl-N-(1-methylethyl)-4-(3,4,5-trimethoxyphenoxy)benzamide] |  |  |  | 0.0089 | 0.01 to 0.1 | 0.133 | 
22 | COc1cc(C(=O)N(C(C)C)C2CCCCC2)ccc1Oc1cc(OC)c(OC)c(OC)c1 [Example 19, N-cyclohexyl-3-methoxy-N-(1-methylethyl)-4-(3,4,5-trimethoxyphenoxy)benzamide] |  |  |  |  |  | 0.995 | 
23 | COc1ccc(Oc2ccc(C(=O)N(C(C)C)C3CCCCC3)cc2)cc1 [Example 2, N-cyclohexyl-4-(4-methoxyphenoxy)-N-(1-methylethyl)benzamide] |  |  |  | 1.12 | 1 to 10 | 22.1 | 
24 | COc1ccc(Cc2ccc(C(=O)N(C3CCCC3)C3CCCC3)cc2)cc1OC [Example 11, N,N-dicyclopentyl-4-[(3,4-dimethoxyphenyl)methyl]benzamide] |  |  |  | 0.114 | 1 to 10 | 1.48 | 
